Measured values taken from publication PMC5225203, “Multiparameter toxicity assessment of novel DOPO-derived organophosphorus flame retardants” (Archives of Toxicology, 2016).

Experiments:
[1] = tested on: human neural crest cells; set-up: method as in Zimmer et al. [2014]; settings: concentrations as high as 100 µM; ref Zimmer et al. [2014]; cited from earlier work
[2] = tested on: rat adrenomedullary pheochromocytoma PC12 cells; settings: PC12, 24 h, maximal concentration 100 µM; ref Hendriks et al. [2014]; cited from earlier work
[3] = tested on: rat neuroblastoma B35 cells; settings: B35, 24 h, maximal concentration 100 µM; ref Hendriks et al. [2014]; cited from earlier work
[4] = tested on: Daphnia magna; settings: water-soluble fraction of a 1000 mg/L suspension (approximately 2 mM), 48 h; ref Waaijers et al. [2013a], [b]; cited from earlier work
[5] = tested on: differentiating LUHMES cells; assay type: cell-based, human; settings: day 0 to day 2
Experimental: LUHMES cells are conditionally immortalized human fetal ventral mesencephalic neuronal precursor cells that were obtained by clonal selection. Differentiated LUHMES cells show a clear dopaminergic phenotype, which was described in detail previously (Schildknecht et al. [2009]; Scholz et al. [2011]). Cells were propagated in advanced DMEM/F12 (Gibco/Invitrogen, Darmstadt, Germany) with 1 × N2 supplement (Invitrogen), 2 mM L-glutamine (Gibco), and 40 ng/mL recombinant bFGF (R&D Systems, Minneapolis, MN, USA). […] For quantitative evaluation of the neurite area, β-III-tubulin-stained cells were analyzed using an automated microplate-reading microscope (Array-Scan II® HCS Reader, Cellomics, Pittsburgh, PA, USA) equipped with a Hamamatsu ORCA-ER camera (1024 × 1024 resolution; run at 2 × 2 binning). […]
For quantitative assessment of total neurite mass, cells were analysed by an automated microscope system with imaging algorithms allowing a separation between cell bodies and […]
Suppl. […] Differentiating human dopaminergic neurons (LUHMES) were treate d with the different flame retardants in the concentrations as indicated for 48 h from day 0 to day 2 of differentiation. a Cell viability was determined by the resazurin redu ction and by the lactate dehydrogenase release assays. b Intracellular levels of ATP and of reduced glutathione (GSH) were measured in parallel.

**Q.** For `Brc1ccc(Oc2cc(Br)c(Br)cc2Br)c(Br)c1` [PBDE-99, reference compound], which “NCC migration and cell death” value [1] is on record?
**A.** inhibited migration in the absence of cell death

**Q.** With `O=[PH]1Oc2ccccc2-c2ccccc21` (stereo not drawn) [DOPO, 9,10-dihydro-9-oxa-10-phosphaphenanthrene-10-oxide] as the compound, how does the “alterations in cell viability, generation of reactive oxygen species, or intracellular Ca2+ levels” value [2] read?
**A.** no signs of alterations

**Q.** What about the “alterations in cell viability, generation of reactive oxygen species, or intracellular Ca2+ levels” value [3] of the same compound?
**A.** no signs of alterations

**Q.** What about the “influence on daphnid viability” value [4] of the same compound?
**A.** did not significantly influence viability

**Q.** What does the source list for `O=P1(NCCNP2(=O)Oc3ccccc3-c3ccccc32)Oc2ccccc2-c2ccccc21` (stereo not drawn) [EDA-DOPO, 6,6′-(ethane-1,2-diylbis(azanediyl))bis(6H-dibenzo[c,e][1,2]oxaphosphinine-6-oxide)]?
**A.** influence on total neurite area [5]: moderate, but significant influence; intracellular levels of ATP and GSH [5]: this effect was not reflected
